# Laboratory results as given in US20070093520A1, “Method of treatment of diarrhea-predominant irritable bowel syndrome in a subject” (priority 2005, published 2007).
# System: diarrhea-predominant IBS subjects
# Assay type: in vivo, human
# Conditions: TEAE incidence, 2 mg, Safety Population
# Protocol: The study was performed in approximately 150 study centers. Approximately 1600 eligible subjects were to be given cilansetron 2 mg TID. At Visit 1, pre-treatment assessments were conducted. […] Subjects were to return to the study site one month later for Visit 3 (Day 31) for their first interim assessment. […] All subjects who discontinued from the study were to have the same post-study assessments required at Visit 7 performed at their early termination visit. […]
# Stool specimens were analyzed at every visit for occult blood. An independent GERB had been established to provide advice on GI AEs during the course of the study.
# Adverse events were assessed at Baseline, at each clinic visit, and at the end of the study (Month 12 or the early termination visit). All AEs, which occurred during the study were followed up in accordance with good medical practice until resolved or judged no longer clinically significant, or if a condition was chronic, until fully characterized. Adverse events could occur in the specified follow-up period and, regardless of the interval since the last administration of the study medication, were treated in the same manner as an AE which occurred during the treatment with study medication. Each AE was evaluated for duration, severity, seriousness, and causal relationship to the investigational drug. The action taken and the outcome were also recorded.
# Specifically, subjects who were lost to follow-up and had no post-Baseline contact with the site were excluded from the Safety population. The subjects who discontinued from the study due to lost to follow-up were identified based on the information collected on the study termination CRF page.
# After the pretreatment assessment at Visit 1 (Days […] to −3), subjects were to return to the study site for a Baseline assessment and start the treatment at Visit 2 (Day 1).
# For the by time-interval analyses of disposition, prevalence of AEs, and of markedly abnormal and predefined changes in laboratory values, vital signs, and ECGs, the following interval windows were used:
# Adverse events that were already present prior to the first dose of cilansetron study medication but increased in severity afterwards were considered as treatment-emergent.
# The 5% cutoff point was based on the incidence within higher level terms.
# Subjects were counted at most once for each primary system organ class and preferred term. Serious AEs that resolved prior to receiving study medication or occurred more than 30 days after the last dose of study medication were not included in the incidence tables. A listing of all SAEs is presented; SAEs with onset prior to receiving study medication or more than 30 days after discontinuation of study medication were flagged. The listing presents lower level term and preferred term of the SAE, severity, action taken, outcome, and relationship of the SAE, start and stop date of the SAE, study day of onset of the SAE, age, race, and sex.
compound,measurement,setting,value
"Cc1nccn1C[C@H]1CCc2c(c3cccc4c3n2CCC4)C1=O [cilansetron, (R)-(−)-4,5,6,8,9,10-hexahydro-10-[(2-methyl-1H-imidazol-1-yl)methyl]-11H-pyrido-[3,2,1-jk]-carbazol-11-one]",Limb Injuries NEC (Incl Traumatic Amputation),HLT,4 (<1%) n (%)
same,Lower Limb Fractures and Dislocations,HLT,4 (<1%) n (%)
same,Menopausal Effects NEC*,HLT,2 (<1%) n (%)
same,Menopausal Effects on the Genitourinary Tract*,HLT,1 (<1%) n (%)
same,Menstruation and Uterine Bleeding NEC*,HLT,3 (<1%) n (%)
same,Menstruation with Decreased Bleeding*,HLT,4 (<1%) n (%)
same,Menstruation with Increased Bleeding*,HLT,2 (<1%) n (%)
same,Mental Disorders NEC,HLT,1 (<1%) n (%)
same,Metabolic Bone Disorders,HLT,4 (<1%) n (%)
same,Mood Alterations with Depressive Symptoms,HLT,1 (<1%) n (%)
same,Muscle Pains,HLT,12 (<1%) n (%)
same,Muscle Related Signs and Symptoms NEC,HLT,8 (<1%) n (%)
same,"Muscle, Tendon and Ligament Injuries",HLT,14 (<1%) n (%)
same,Myocardial Disorders NEC,HLT,2 (<1%) n (%)
same,Nasal Congestion and Inflammations,HLT,10 (<1%) n (%)
same,Nasal Disorders NEC,HLT,5 (<1%) n (%)
same,Non-Site Specific Injuries NEC,HLT,10 (<1%) n (%)
same,Non-Site Specific Procedural Complications,HLT,5 (<1%) n (%)
same,Oedema NEC,HLT,1 (<1%) n (%)
same,Osteoarthropathies,HLT,4 (<1%) n (%)
same,Ovarian and Fallopian Tube Cysts and Neoplasms*,HLT,2 (<1%) n (%)
same,Pain and Discomfort NEC,HLT,20 (1%) n (%)
same,Panic Disorders,HLT,4 (<1%) n (%)
same,Papulosquamous Conditions,HLT,6 (<1%) n (%)
same,Paranasal Sinus Disorders (Excl Infections and Neoplasms),HLT,6 (<1%) n (%)
same,Parasomnias,HLT,2 (<1%) n (%)
same,Pelvic Prolapse*,HLT,2 (<1%) n (%)
same,Photosensitivity Conditions,HLT,1 (<1%) n (%)
same,Potassium Imbalance,HLT,4 (<1%) n (%)
same,"Prostatic signs, Symptoms and Disorders NEC*",HLT,4 (<1%) n (%)
same,Pruritus NEC,HLT,14 (<1%) n (%)
same,Purine Metabolism Disorders NEC,HLT,1 (<1%) n (%)
same,"Rashes, Eruptions and Exanthems NEC",HLT,13 (<1%) n (%)
same,Rate and Rhythm Disorders NEC,HLT,8 (<1%) n (%)
same,Renal Lithiasis,HLT,2 (<1%) n (%)
same,Renal Neoplasms,HLT,1 (<1%) n (%)
same,Reproductive Tract Disorders NEC (Excl Neoplasms),HLT,1 (<1%) n (%)
same,Reproductive Tract Signs and Symptoms NEC,HLT,2 (<1%) n (%)
same,Respiratory Tract Disorders NEC,HLT,1 (<1%) n (%)
same,Rheumatoid Arthropathies,HLT,2 (<1%) n (%)
same,Rosaceas,HLT,1 (<1%) n (%)
same,Scalar Conditions,HLT,1 (<1%) n (%)
same,Sebaceous Gland Disorders,HLT,1 (<1%) n (%)
same,Sexual Desire Disorders,HLT,2 (<1%) n (%)
same,Site Specific Injuries NEC,HLT,17 (1%) n (%)
same,Skin Injuries and Mechanical Dermatoses,HLT,3 (<1%) n (%)
same,Skin Neoplasms Benign,HLT,1 (<1%) n (%)
same,Skin Preneoplastic Conditions NEC,HLT,1 (<1%) n (%)
same,Skin and Subcutaneous Tissue Ulcerations,HLT,1 (<1%) n (%)
same,Sleep Disorders NEC,HLT,2 (<1%) n (%)
same,Sodium Imbalance,HLT,1 (<1%) n (%)
same,Soft Tissue Disorders NEC,HLT,6 (<1%) n (%)
same,Spondyloarthropathies,HLT,2 (<1%) n (%)
same,Structural and Obstructive Urethral Disorders (Excl Congenital),HLT,1 (<1%) n (%)
same,Supraventricular Arrhythmias,HLT,18 (1%) n (%)
same,Tendon Disorders,HLT,3 (<1%) n (%)
same,Thermal Burns,HLT,1 (<1%) n (%)
same,Thoracic Cage Fractures and Dislocations,HLT,2 (<1%) n (%)
same,Total Fluid Volume Increased,HLT,1 (<1%) n (%)
same,Upper Limb Fractures and Dislocations,HLT,7 (<1%) n (%)
same,Upper Respiratory Tract Signs and Symptoms,HLT,36 (2%) n (%)
same,Urinary Abnormalities,HLT,8 (<1%) n (%)
same,Urinary Tract Lithiasis (Excl Renal),HLT,2 (<1%) n (%)
same,Urinary Tract Signs and Symptoms NEC,HLT,8 (<1%) n (%)
same,Urticarias,HLT,4 (<1%) n (%)
same,Ventricular Arrhythmias and Cardiac Arrest,HLT,3 (<1%) n (%)
same,Water Soluble Vitamin Deficiencies,HLT,2 (<1%) n (%)
same,Connective Tissue Disorders,HLT (skin SOC),1 (<1%) n (%)
same,Abrasion NOS,PT,1 (<1%) n (%)
same,Acne Aggravated,PT,1 (<1%) n (%)
same,Acne NOS,PT,1 (<1%) n (%)
same,Acute Myocardial Infarction,PT,2 (<1%) n (%)
same,Affect Lability,PT,1 (<1%) n (%)
same,Alopecia,PT,1 (<1%) n (%)
same,Alopecia Areata,PT,1 (<1%) n (%)
same,Amenorrhoea NOS*,PT,2 (<1%) n (%)
same,Anal Injury,PT,1 (<1%) n (%)
same,Angina Pectoris,PT,2 (<1%) n (%)
same,Animal Bite,PT,2 (<1%) n (%)
same,Ankle Fracture,PT,1 (<1%) n (%)
same,Anorexia,PT,11 (<1%) n (%)
same,Anxiety,PT,12 (<1%) n (%)
same,Anxiety Aggravated,PT,1 (<1%) n (%)
same,Anxiety Disorder,PT,1 (<1%) n (%)
same,Appetite Decreased NOS,PT,2 (<1%) n (%)
same,Appetite Increased NOS,PT,2 (<1%) n (%)
same,Arthralgia,PT,29 (2%) n (%)
same,Arthralgia Aggravated,PT,1 (<1%) n (%)
same,Arthritis NOS,PT,1 (<1%) n (%)
same,Arthropod Sting,PT,2 (<1%) n (%)
same,Asthenia,PT,2 (<1%) n (%)
same,Asthma Aggravated,PT,2 (<1%) n (%)
same,Asthma NOS,PT,6 (<1%) n (%)
same,Atrial Fibrillation,PT,2 (<1%) n (%)
same,Atrial Fibrillation Aggravated,PT,1 (<1%) n (%)
same,Atrial Flutter,PT,1 (<1%) n (%)
same,Atrial Hypertrophy,PT,1 (<1%) n (%)
same,Atrioventricular Block NOS,PT,1 (<1%) n (%)
same,Axillary Pain,PT,1 (<1%) n (%)
same,Back Injury NOS,PT,3 (<1%) n (%)
same,Back Pain Aggravated,PT,2 (<1%) n (%)
same,Benign Prostatic Hyperplasia*,PT,3 (<1%) n (%)
same,Bloody Discharge,PT,1 (<1%) n (%)
same,Bradycardia NOS,PT,2 (<1%) n (%)
same,Breast Cyst*,PT,2 (<1%) n (%)
same,Breast Engorgement*,PT,1 (<1%) n (%)
same,Breast Pain*,PT,2 (<1%) n (%)
same,Breast Tenderness*,PT,1 (<1%) n (%)
same,Bundle Branch Block Right,PT,3 (<1%) n (%)
same,Bursitis,PT,1 (<1%) n (%)
same,Calculus Renal NOS,PT,2 (<1%) n (%)
same,Calculus Ureteric,PT,2 (<1%) n (%)
same,Catarrh,PT,2 (<1%) n (%)
